Experimental data taken from US12110286B2, “Benzimidazolone derived inhibitors of BCL6” (Cancer Research Technology Limited, priority 2017, dated 2024).

Each compound was assayed against Trx-6×His-BCL6 (human BCL6 BTB domain covering amino-acid sequence 5-129) (Homo sapiens (Human), UniProt P41182) (assay: HTRF in vitro assay (BCL6 / BCOR-AF633 peptide)). Settings: result in words.
Type: binding
Experimental: The % inhibition at each concentration was calculated by normalising FRET ratio to the appropriate high (DMSO with all reagents) and low (DMSO without BCL6) controls.

Compound | activity in the HTRF assay
Cn1c(=O)n(CCC(C)(C)O)c2cc(Nc3cc(Cl)ncc3C(F)F)ccc21 [5-((2-chloro-5-(difluoromethyl)pyridin-4-yl)amino)-3-(3-hydroxy-3-methylbutyl)-1-methyl-1,3-dihydro-2H-benzo[d]imidazol-2-one] | did not exhibit the desired activity
Cn1c(=O)n(CCC(C)(C)O)c2cc(Nc3c(Cl)cncc3Cl)ccc21 [5-((3,5-dichloropyridin-4-yl)amino)-3-(3-hydroxy-3-methylbutyl)-1-methyl-1,3-dihydro-2H-benzo[d]imidazol-2-one] | did not exhibit the desired activity
COCCNc1cc(Nc2ccc3c(c2)n(C)c(=O)n3C)n2nccc2n1 [5-((5-((2-methoxyethyl)amino)pyrazolo[1,5-a]pyrimidin-7-yl)amino)-1,3-dimethyl-1,3-dihydro-2H-benzo[d]imidazol-2-one] | did not exhibit the desired activity
COc1c(Cl)ncnc1Nc1ccc2c(c1)n(C)c(=O)n2C [5-((6-chloro-5-methoxypyrimidin-4-yl)amino)-1,3-dimethyl-1,3-dihydro-2H-benzo[d]imidazol-2-one] | did not exhibit the desired activity
Cn1c(=O)n(CCC(C)(C)O)c2cc(Nc3cc4nccn4cc3Cl)ccc21 [5-((6-chloroimidazo[1,2-a]pyridin-7-yl)amino)-3-(3-hydroxy-3-methylbutyl)-1-methyl-1,3-dihydro-2H-benzo[d]imidazol-2-one] | did not exhibit the desired activity
Cn1c(=O)n(CCC(C)(C)O)c2cc(Nc3nc(Cl)ncc3Cl)ncc21 [6-((2,5-dichloropyrimidin-4-yl)amino)-1-(3-hydroxy-3-methylbutyl)-3-methyl-1,3-dihydro-2H-imidazo[4,5-c]pyridin-2-one] | did not exhibit the desired activity
Cn1c(=O)n(CCC(C)(C)O)c2cc(Nc3ccncc3Cl)ncc21 [6-((3-chloropyridin-4-yl)amino)-1-(3-hydroxy-3-methylbutyl)-3-methyl-1,3-dihydro-2H-imidazo[4,5-c]pyridin-2-one] | did not exhibit the desired activity
Cn1c(=O)n(CCC(C)(C)O)c2cc(Nc3cc(-n4ccc(C(F)(F)F)n4)ncc3Cl)ncc21 [6-((5-chloro-2-(3-(trifluoromethyl)-1H-pyrazol-1-yl)pyridin-4-yl)amino)-1-(3-hydroxy-3-methylbutyl)-3-methyl-1,3-dihydro-2H-imidazo[4,5-c]pyridin-2-one] | did not exhibit the desired activity
Cn1c(=O)n(CCC(C)(C)O)c2cc(Nc3nc(-n4ccc(C(F)(F)F)n4)ncc3Cl)ncc21 [6-((5-chloro-2-(3-(trifluoromethyl)-1H-pyrazol-1-yl)pyrimidin-4-yl)amino)-1-(3-hydroxy-3-methylbutyl)-3-methyl-1,3-dihydro-2H-imidazo[4,5-c]pyridin-2-one] | did not exhibit the desired activity
Cn1c(=O)n(CCC(C)(C)O)c2cc(Nc3cc(N4CCC(F)(F)CC4)ncc3Cl)ncc21 [6-((5-chloro-2-(4,4-difluoropiperidin-1-yl)pyridin-4-yl)amino)-1-(3-hydroxy-3-methylbutyl)-3-methyl-1,3-dihydro-2H-imidazo[4,5-c]pyridin-2-one] | did not exhibit the desired activity
Cn1c(=O)n(CCC(C)(C)O)c2cc(Nc3nc(N4CCC(F)(F)CC4)ncc3Cl)ncc21 [6-((5-chloro-2-(4,4-difluoropiperidin-1-yl)pyrimidin-4-yl)amino)-1-(3-hydroxy-3-methylbutyl)-3-methyl-1,3-dihydro-2H-imidazo[4,5-c]pyridin-2-one] | did not exhibit the desired activity
